In BindingDB's records for doi:10.1016/s0960-894x(01)00044-0 (Novartis Institute For Medical Sciences, 2001):

Legend:
Substance-P receptor = Substance-P receptor (Cavia porcellus, UniProt P30547); assay: ChEBML_205410
From the text: In vitro binding affinity against Tachykinin receptor 1 in guinea pig ileum using organ bath assay

[1] = In vitro binding affinity against Tachykinin receptor 1 in rabbit whole brain membranes using [3H][Sar9Met(O2)]-SP binding assay

Substance-P receptor, sequence (P30547 whole entry): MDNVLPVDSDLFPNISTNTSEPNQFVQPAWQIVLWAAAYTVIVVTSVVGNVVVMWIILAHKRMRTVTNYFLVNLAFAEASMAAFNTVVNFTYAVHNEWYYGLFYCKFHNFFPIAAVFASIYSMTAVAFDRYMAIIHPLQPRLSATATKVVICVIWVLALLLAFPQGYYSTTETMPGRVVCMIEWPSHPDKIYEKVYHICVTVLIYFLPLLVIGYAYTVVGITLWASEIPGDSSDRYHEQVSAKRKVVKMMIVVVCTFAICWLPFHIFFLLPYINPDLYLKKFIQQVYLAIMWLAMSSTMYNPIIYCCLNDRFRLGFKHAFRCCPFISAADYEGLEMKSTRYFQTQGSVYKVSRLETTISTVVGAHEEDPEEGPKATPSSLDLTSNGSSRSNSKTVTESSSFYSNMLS

Row | IC50 (Substance-P receptor) [µM] | IC50 [1] [µM] | Compound
1 | > 100 |  | CSCCNS(=O)(=O)c1ccc(NNC(=S)N2CCCC2C(=O)NCc2ccccc2)c([N+](=O)[O-])c1 (configuration not stated)
2 |  | > 50 | CSCCNS(=O)(=O)c1ccc(NNC(=S)N2CCCC2C(=O)NC(c2ccccc2)c2ccccc2)c([N+](=O)[O-])c1 (configuration not stated)
